Measurements as given in US12404246B1, “2-aminomethylimidazole mimics of NS4A and their effect thereof on hepatitis C virus NS3 protease” (King Abdulaziz University, priority 2024, dated 2025).

Legend:
[1] = target: T1, HCV NS3 domain of genotype 4a (Hepatitis C virus genotype 4a, UniProt O39929); assay: Binding assay by Differential Static Light Scattering (DSLS): aggregation temperature of NS3; settings: for ΔTagg (aggregation temperature shift of NS3): NS3 domain 15.0 μM with equimolar compound, shift against NS3 alone
T1 construct: NS3 protease domain 1-181 aa+N-terminal T7 tag and C-terminal His tag; T7 tag (N); made in house; host or cells: E. coli Rosette (DE3) pLysS
Source text: In an embodiment, DSLS (Senisterra, Markin et al. 2006) is a preferred method to compare the relative binding potency for binding of a compound of Formula I with HCV NS3. DSLS measure the proteins aggregation temperature (Tagg) as an indicator of its stability (Davis, Walker et al. 2010). It is known that the binding of small molecules to proteins causes shifts of the aggregation temperature (ΔTagg) to higher temperature (Shahul Hameed, Haider et al. 2018). One aspect of this invention is using ΔTagg determination as a method to determine the potency of binding of compounds belonging to formula I to the HCV NS3 protease, in comparison to the native NS4A.
The NS3 domain (15.0 μM), alone or mixed with an equimolar equivalent of tested compound or the NS4A, was added to a binding buffer (20.0 mM HEPES, 10.0 mM DTT, 200 mM NaCl, pH 7.60) to a final volume 100 μL. The mixture was incubated at room temperature with gentle shaking for 2 h. Afterwards, 10 μL of the mixture was transferred into a clear bottomed Nunc 384-well plate and covered by 10 μL paraffin oil to minimize evaporation. Protein aggregation was monitored by tracking the change in scattered light that was detected by a charged coupled device (CCD) camera. Snapshot images of the plate were taken every 0.5° C. The pixel intensities in a preselected region of each well were integrated using image analysis software to generate a value representative of the total amount of scattered light in that region. These intensities were then plotted against temperature for each sample well and fitted to obtain the aggregation temperature (Tagg). Aggregation was monitored and analyzed to assess the effect of NS4A and its synthetic analogues on the stability of the NS3 as an indicator of binding. Each experiment was repeated three times (Triplicate). Statistical analysis was performed using GraphPad Prism v. 8.0® and Instat® v. 3.10 software. The Tagg for the compound was only considered if its […] of the calculated Tagg value.
Each experiment was run as triplicate (Experiment 1, 2 and 3) and the standard deviations (ST.DEV.) were calculated. (results table FIG. 31).

HCV NS3 = HCV NS3 (Hepatitis C virus genotype 4a, UniProt O39929); settings: mixed with a substrate peptide; cited from earlier work

SMILES | ΔTagg (aggregation temperature shift of NS3) [1] [°C] | further results
CCCCCCNCc1nc(C(=O)NCc2ccccn2)c[nH]1 [Comp 9, 2-((hexylamino)methyl)-N-(pyridin-2-ylmethyl)-1H-imidazole-4-carboxamide] | 0.91 | 
O=C(NCc1ccccn1)c1cnc(CNCCOC2CCCCC2)[nH]1 [Comp 10, 2-(((2-(cyclohexyloxy)ethyl)amino)methyl)-N-(pyridin-2-ylmethyl)-1H-imidazole-5-carboxamide] | 0.43 | 
CC(=O)NCCNCc1nc(C(=O)NCc2ccccn2)c[nH]1 [Comp 13, 2-(((2-acetamidoethyl)amino)methyl)-N-(pyridin-2-ylmethyl)-1H-imidazole-5-carboxamide] | 1.35 | affinity towards the HCV NS3 protein compared to the native viral peptide cofactor NS4A ([1]; DSLS, FIG. 30-32): equal or higher affinity; Tagg (aggregation temperature of NS3 mixed with the substance) ([1]; NS3 domain 15.0 μM with equimolar substance, incubated 2 h, triplicate, NS3 alone Tagg 43.22° C.): 44.40 °C; ΔTagg higher than that of the HCV NS4A ([1]; relative to the shift caused by NS4A): 14%
CCCCCCNCc1ncc(C(=O)NCc2ccccn2)[nH]1 [Comp 3, 2-((hexylamino)methyl)-N-(pyridin-2-ylmethyl)-1H-imidazole-5-carboxamide] | 0.47 | 
CNC(=O)CNC(=O)c1cnc(CNCCNC(C)=O)[nH]1 [Comp 8, 2-(((2-acetamidoethyl)amino)methyl)-N-(2-(methylamino)-2-oxoethyl)-1H-imidazole-5-carboxamide] | 0.48 | 
CC(C)CCCCCNCc1ncc(C(=O)NCc2ccccn2)[nH]1 [Comp 12, 2-(((6-methylheptyl)amino)methyl)-N-(pyridin-2-ylmethyl)-1H-imidazole-5-carboxamide] | 0.57 | 
CCCCCCNC(=O)c1ncc(C(=O)NCCCCNC(=N)N)[nH]1 [N5-(4-guanidinobutyl)-N2-n-hexyl-1H-imidazole-2,5-dicarboxamide] |  | inhibition of HCV NS3 protease function (HCV NS3): able to inhibit the HCV NS3 from functioning as a protease
